Laboratory results from ChEMBL document CHEMBL5505975, “Design, synthesis and biological evaluation of CDC20 inhibitors for treatment of triple-negative breast cancer” (Eur J Med Chem, 2024).

What was measured:
MDA-MB-468 = assay: Antiproliferative activity against human MDA-MB-468 cells assessed as reduction in cell viability incubated for 96 hrs by MTT assay; conditions: MDA-MB-468, 96 h
[1] = Cytotoxicity against human L02 cells assessed as reduction in cell viability incubated for 96 hrs by MTT assay; assay type: toxicity, cell-based
A549 = assay: Antiproliferative activity against human A549 cells assessed as reduction in cell viability incubated for 96 hrs by MTT assay; conditions: A549, 96 h
MCF7 = assay: Antiproliferative activity against human MCF7 cells assessed as reduction in cell viability incubated for 96 hrs by MTT assay; conditions: MCF7, 96 h
MDA-MB-231 = assay: Antiproliferative activity against human MDA-MB-231 cells assessed as reduction in cell viability incubated for 96 hrs by MTT assay; conditions: MDA-MB-231, 96 h

SMILES	IC50 (MDA-MB-468) [µM]	IC50 (A549) [µM]	IC50 (MCF7) [µM]	IC50 (MDA-MB-231) [µM]	IC50 at 96 h [1] [µM]
CCC(=O)NC(Nc1nc(Nc2cc(F)c(OC)c(F)c2)c2cc[nH]c2n1)C(Cl)(Cl)Cl (stereo not given)	10.4	8.79	7.2	8.07	14.5
O=C(NC(Nc1nccc(Nc2ccc(C(F)(F)F)cc2)n1)C(Cl)(Cl)Cl)C1CC1 (stereo not given)	> 20	> 20	> 20	> 20	> 20
O=C(NC(Nc1nc(Nc2ccc(C(F)(F)F)cc2)c2cc[nH]c2n1)C(Cl)(Cl)Cl)C1CC1 (stereo not given)	10.2	6.66	6.71	5.97	16.1
CCCCCC(=O)NC(Nc1nc(Nc2cc(OC)c(OC)c(OC)c2)c2cc[nH]c2n1)C(Cl)(Cl)Cl (stereo not given)	15.2	10.8	16.7	8.25	12.3
CCCCC(=O)NC(Nc1nc(Nc2ccc(C(F)(F)F)cc2)c2cc[nH]c2n1)C(Cl)(Cl)Cl (stereo not given)	13.2	7.26	7.58	7.36	8.85
CCC(=O)NC(n1cnc2c(Nc3ccc(C(F)(F)F)cc3)nc(N)nc21)C(Cl)(Cl)Cl (stereo not given)	11.3	10.4	10.2	9.56	12.3
CCCCCC(=O)NC(Nc1nc(Nc2cc(OC)cc(OC)c2)c2cc[nH]c2n1)C(Cl)(Cl)Cl (stereo not given)	> 20	> 20	> 20	> 20	> 20
CCC(=O)NC(Nc1nc(Nc2ccc(OC)c(OC)c2)c2cc[nH]c2n1)C(Cl)(Cl)Cl (stereo not given)	> 20	> 20	> 20	> 20	> 20
CCC(=O)NC(Nc1nc(Nc2ccc(C(F)(F)F)cc2F)c2cc[nH]c2n1)C(Cl)(Cl)Cl (stereo not given)	14.1	11.2	13.6	12.6	14
CCC(=O)NC(Nc1nc(Nc2cc(OC)cc(OC)c2)c2cc[nH]c2n1)C(Cl)(Cl)Cl (stereo not given)	> 20	> 20	> 20	> 20	> 20
CCC(=O)NC(n1cnc2c(Nc3ccc4c(c3)OCO4)nc(N)nc21)C(Cl)(Cl)Cl (stereo not given)	> 20	> 20	> 20	> 20	> 20
CCC(=O)NC(Nc1nc(Nc2ccc(OC(F)(F)F)cc2)c2cc[nH]c2n1)C(Cl)(Cl)Cl (stereo not given)	18.1	11.3	11.8	16.1	25.3
CCCc1ccc(Nc2nc(NC(NC(=O)CC)C(Cl)(Cl)Cl)nc3[nH]ccc23)cc1 (stereo not given)	> 20	> 20	> 20	> 20	> 20
O=C(NC(Nc1nc(Nc2ccc(C(F)(F)F)cc2)c2cc[nH]c2n1)C(Cl)(Cl)Cl)C1CCCCC1 (stereo not given)	9.15	9.3	8.17	8.69	11.6
CCC(=O)NC(Nc1nc(Nc2ccc(OC(F)(F)F)c(F)c2)c2cc[nH]c2n1)C(Cl)(Cl)Cl (stereo not given)	> 20	7.52	9.27	10.1	7.55
CCC(=O)NC(Nc1nc(Nc2ccc3scnc3c2)c2cc[nH]c2n1)C(Cl)(Cl)Cl (stereo not given)	> 20	> 20	> 20	> 20	> 20
CCCCCC(=O)NC(Nc1nc(Nc2ccc(C(F)(F)F)cc2)c2cc[nH]c2n1)C(Cl)(Cl)Cl (stereo not given)	12	8.36	6.97	6.15	14.4
CCC(=O)NC(Nc1nc(Nc2ccc(OC)c(Cl)c2)c2cc[nH]c2n1)C(Cl)(Cl)Cl (stereo not given)	> 20	> 20	> 20	> 20	> 20

Second part, led by results:

IC50 (MDA-MB-468) [µM]	IC50 (A549) [µM]	IC50 (MCF7) [µM]	IC50 (MDA-MB-231) [µM]	SMILES	IC50 at 96 h [1] [µM]
> 20	> 20	> 20	> 20	CCC(=O)NC(Nc1nc(Nc2ccc(OC)cc2)c2cc[nH]c2n1)C(Cl)(Cl)Cl (stereo not given)	> 20
> 20	6.92	17.7	12.7	CCC(=O)NC(Nc1nc(Nc2ccc(C(F)(F)F)cc2Cl)c2cc[nH]c2n1)C(Cl)(Cl)Cl (stereo not given)	14.5
> 20	> 20	> 20	> 20	CCCCC(=O)NC(Nc1nc(Nc2cc(OC)cc(OC)c2)c2cc[nH]c2n1)C(Cl)(Cl)Cl (stereo not given)	> 20
10.1	7.98	6.21	7.79	CCC(=O)NC(Nc1nc(Nc2ccc(C(F)(F)F)cc2)c2cc[nH]c2n1)C(Cl)(Cl)Cl (stereo not given)	12.8
> 20	> 20	> 20	> 20	CCC(=O)NC(n1cnc2c(Nc3ccc(OC)cc3)nc(N)nc21)C(Cl)(Cl)Cl (stereo not given)	> 20
> 20	14.3	19.4	10.5	CCCCC(=O)NC(Nc1nc(Nc2cc(OC)c(OC)c(OC)c2)c2cc[nH]c2n1)C(Cl)(Cl)Cl (stereo not given)	> 20
> 20	> 20	> 20	19.8	CCC(=O)NC(Nc1nc(Nc2ccc(C(F)(F)F)nc2)c2cc[nH]c2n1)C(Cl)(Cl)Cl (stereo not given)	> 20
12.3	10.8	13.7	11.4	COc1cc(Nc2nc(NC(NC(=O)C3CCCCC3)C(Cl)(Cl)Cl)nc3[nH]ccc23)cc(OC)c1OC (stereo not given)	14
> 20	> 20	> 20	> 20	CCCC(=O)NC(Nc1nc(Nc2cc(OC)cc(OC)c2)c2cc[nH]c2n1)C(Cl)(Cl)Cl (stereo not given)	> 20
9.62	7.32	6.58	7.32	CCCC(=O)NC(Nc1nc(Nc2ccc(C(F)(F)F)cc2)c2cc[nH]c2n1)C(Cl)(Cl)Cl (stereo not given)	10.2
> 20	> 20	> 20	> 20	COc1cc(Nc2nc(NC(NC(=O)C3CCCCC3)C(Cl)(Cl)Cl)nc3[nH]ccc23)cc(OC)c1 (stereo not given)	> 20
> 20	> 20	> 20	> 20	CCC(=O)NC(n1cnc2c(Nc3cc(OC)cc(OC)c3)nc(N)nc21)C(Cl)(Cl)Cl (stereo not given)	> 20
17.2	> 20	19.6	9.91	CCCC(=O)NC(Nc1nc(Nc2cc(OC)c(OC)c(OC)c2)c2cc[nH]c2n1)C(Cl)(Cl)Cl (stereo not given)	14.4
> 20	> 20	> 20	> 20	CCC(=O)NC(n1cnc2c(Nc3ccc(OC)c(Cl)c3)nc(N)nc21)C(Cl)(Cl)Cl (stereo not given)	> 20
15.9	11.6	14.7	8.81	CCC(=O)NC(Nc1nc(Nc2cc(OC)c(OC)c(OC)c2)c2cc[nH]c2n1)C(Cl)(Cl)Cl (stereo not given)	9.01
